This passage reports IC50 results from patent US11180474B2 (BRISTOL-MYERS SQUIBB COMPANY, priority 2016, dated 2021).

Counter-ions that a name gives are not always drawn.

The target in this test is T1, human TLR7 (Homo sapiens, UniProt Q9NYK1).
T1 construct: host or cells: HEK-Blue cells
T1 sequence (Q9NYK1 27-1049): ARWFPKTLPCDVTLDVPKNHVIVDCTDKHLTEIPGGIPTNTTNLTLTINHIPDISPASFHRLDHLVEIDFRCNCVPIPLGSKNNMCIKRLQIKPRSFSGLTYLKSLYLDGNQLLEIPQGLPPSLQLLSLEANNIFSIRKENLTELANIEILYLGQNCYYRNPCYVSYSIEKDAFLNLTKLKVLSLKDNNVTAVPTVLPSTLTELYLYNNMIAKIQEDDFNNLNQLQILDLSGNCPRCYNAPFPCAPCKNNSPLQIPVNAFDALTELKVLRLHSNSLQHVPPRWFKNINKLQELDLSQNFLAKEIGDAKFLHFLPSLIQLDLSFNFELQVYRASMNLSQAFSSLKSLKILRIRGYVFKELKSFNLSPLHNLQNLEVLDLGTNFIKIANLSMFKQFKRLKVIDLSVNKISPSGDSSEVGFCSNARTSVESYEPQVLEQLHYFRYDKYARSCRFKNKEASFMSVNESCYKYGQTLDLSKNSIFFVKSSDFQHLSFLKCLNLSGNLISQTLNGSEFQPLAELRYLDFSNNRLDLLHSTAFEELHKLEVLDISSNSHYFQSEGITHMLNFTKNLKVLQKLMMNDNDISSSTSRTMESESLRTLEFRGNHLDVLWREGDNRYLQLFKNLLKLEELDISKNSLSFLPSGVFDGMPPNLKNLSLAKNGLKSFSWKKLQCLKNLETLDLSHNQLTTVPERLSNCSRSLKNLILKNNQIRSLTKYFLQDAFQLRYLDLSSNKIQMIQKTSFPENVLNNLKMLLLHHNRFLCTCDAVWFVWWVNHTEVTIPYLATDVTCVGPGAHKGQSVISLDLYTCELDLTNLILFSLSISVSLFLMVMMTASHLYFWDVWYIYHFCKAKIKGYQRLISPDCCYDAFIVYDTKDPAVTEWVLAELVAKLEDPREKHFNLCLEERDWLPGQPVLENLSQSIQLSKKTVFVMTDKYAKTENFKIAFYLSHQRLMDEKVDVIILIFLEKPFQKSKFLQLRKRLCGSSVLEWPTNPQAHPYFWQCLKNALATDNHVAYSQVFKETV
The test can be described thus: TLR7 inhibition reporter assay (HEK-Blue cells, SEAP reporter, gardiquimod stimulation). It counts as cell-based. The following applies: HEK-Blue cells overexpressing human TLR7, gardiquimod 7.5 μM. In short, it runs like this: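 In this cell reporter format, test compounds at 0.05 nM-50 μM final incubate 22 h with seeded cells (TLR7 15000, TLR8 20,000 per well). SEAP read-out by HEK-Blue Detection medium yields % inhibition relative to agonist/DMSO and known-inhibitor wells.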
(In a reporter assay the amount or activity of a reporter protein is the signal.)
In general, IC50 refers to the point on the concentration scale where inhibition reaches its midpoint. Take `CCc1c(-c2ccc(OC)c(OC)c2)[nH]c2c(F)cc(C3CCN(C4CCN(CC(C)C)CC4)CC3)cc12` [Example 190, 2-(3,4-dimethoxyphenyl)-3-ethyl-7-fluoro-5-(1′-isobutyl-[1,4′-bipiperidin]-4-yl)-1H-indole]: the 50% inhibitory concentration (IC50) worked out at 0.588 µM.

Compound `CCc1c(-c2ccc(OC)c(OC)c2)[nH]c2c(F)cc(C3CCN(CCNC)CC3)cc12` [Example 191, 2-(4-(2-(3,4-dimethoxyphenyl)-3-ethyl-7-fluoro-1H-indol-5-yl)piperidin-1-yl)-N-methylethan-1-amine] came in with a 50% inhibitory concentration (IC50) of 1.19 µM.

As to `CCc1c(-c2ccc(OC)c(OC)c2)[nH]c2cc(OC)c(C3CCN(C4CCN(C(C)C)CC4)CC3)cc12` [Example 192, 2-(3,4-dimethoxyphenyl)-3-ethyl-5-(1′-isopropyl-[1,4′-bipiperidin]-4-yl)-6-methoxy-1H-indole], the IC50 came out at 0.171 µM.

Regarding `COc1ccc(-c2[nH]c3ccc(C4CCNCC4)cc3c2C(C)C)cc1OC` [Example 194, 2-(3,4-dimethoxyphenyl)-3-isopropyl-5-(piperidin-4-yl)-1H-indole hydrochloride], the IC50 was 0.073 µM. Compared with the last compound, the IC50 is about 2.3-fold lower.

The compound `COc1ccc(-c2[nH]c3ccc(C4CCN(C5CCNCC5)CC4)cc3c2C(C)C)cc1OC` [Example 197, 5-([1,4′-bipiperidin]-4-yl)-2-(3,4-dimethoxyphenyl)-3-isopropyl-1H-indole dihydrochloride] returned a concentration for half-maximal inhibition (IC50) of 0.113 µM.

Consider `COc1ccc(-c2[nH]c3ccc(C4CCN(C5CCN(CC6CC6)CC5)CC4)cc3c2C(C)C)cc1OC` [Example 198, 5-(1′-(cyclopropylmethyl)-[1,4′-bipiperidin]-4-yl)-2-(3,4-dimethoxyphenyl)-3-isopropyl-1H-indole di trifluoroacetic acid], for which the IC50 is 0.379 µM.

`COc1ccc(-c2[nH]c3ccc(C4CCN(C5CCN(CC(C)C)CC5)CC4)cc3c2C(C)C)cc1OC` [Example 199, 2-(3,4-dimethoxyphenyl)-5-(1′-isobutyl-[1,4′-bipiperidin]-4-yl)-3-isopropyl-1H-indole]: the IC50 stood at 0.12 µM.

`COc1ccc(-c2[nH]c3ccc(C4CCN(C5CCN(C)CC5)CC4)cc3c2C(C)C)cc1OC` [Example 200, 2-(3,4-dimethoxyphenyl)-3-isopropyl-5-(1′-methyl-[1,4′-bipiperidin]-4-yl)-1H-indole] showed a concentration for half-maximal inhibition (IC50) of 0.101 µM. This IC50 and that of the compound before are within 1.5-fold of each other.

Compound `COc1ccc(-c2[nH]c3ccc(C4CCN(C5CCN(C(C)C)CC5)CC4)cc3c2C(C)C)cc1OC` [Example 201, 2-(3,4-dimethoxyphenyl)-3-isopropyl-5-(1′-isopropyl-[1,4′-bipiperidin]-4-yl)-1H-indole] gave an IC50 of 0.119 µM.

In turn, `COc1ccc(-c2[nH]c3ccc(C4CCN(C5CCN(C6CCCC6)CC5)CC4)cc3c2C(C)C)cc1OC` [Example 202, 5-(1′-cyclopentyl-[1,4′-bipiperidin]-4-yl)-2-(3,4-dimethoxyphenyl)-3-isopropyl-1H-indole] gave a half-inhibitory concentration (IC50) of 0.155 µM. The IC50 values of the last two compounds are within 1.5-fold of each other.

`CCN(CC)C(=O)CN(C)CC(=O)N1CCC(c2ccc3[nH]c(-c4ccc(OC)c(OC)c4)c(C(C)C)c3c2)CC1` [Example 203, 2-((2-(4-(2-(3,4-dimethoxyphenyl)-3-isopropyl-1H-indol-5-yl)piperidin-1-yl)-2-oxoethyl)(methyl)amino)-N,N-diethylacetamide, TFA] showed an IC50 of 0.128 µM.

For `CCN(CC)C(=O)CCN(C)CC(=O)N1CCC(c2ccc3[nH]c(-c4ccc(OC)c(OC)c4)c(C(C)C)c3c2)CC1` [Example 204, 3-((2-(4-(2-(3,4-dimethoxyphenyl)-3-isopropyl-1H-indol-5-yl)piperidin-1-yl)-2-oxoethyl)(methyl)amino)-N,N-diethylpropanamide], inhibition was half-maximal at 0.16 µM (IC50).

`COc1ccc(-c2[nH]c3cc(C)c(C4CCNCC4)cc3c2C(C)C)cc1OC` [Example 205, 2-(3,4-dimethoxyphenyl)-3-isopropyl-6-methyl-5-(piperidin-4-yl)-1H-indole] had an IC50 of 2.37 µM.

Turning to `COc1ccc(-c2[nH]c3cc(C)c(C4CCN(C5CCN(C(C)C)CC5)CC4)cc3c2C(C)C)cc1OC` [Example 206, 2-(3,4-dimethoxyphenyl)-3-isopropyl-5-(1′-isopropyl-[1,4′-bipiperidin]-4-yl)-6-methyl-1H-indole di trifluoroacetic acid], it took 3.57 µM to reach half-maximal inhibition (IC50).

`CNCCN1CCC(c2cc3c(C(C)C)c(-c4ccc(OC)c(OC)c4)[nH]c3cc2C)CC1` [Example 207, 2-(4-(2-(3,4-dimethoxyphenyl)-3-isopropyl-6-methyl-1H-indol-5-yl)piperidin-1-yl)-N-methylethan-1-amine] showed a half-maximal inhibitory concentration (IC50) of 7.3 µM.

`CNCCN1CCC(c2cc3c(C(C)C)c(-c4ccc(OC)c(OC)c4)[nH]c3cc2F)CC1` [Example 208, 2-(4-(2-(3,4-dimethoxyphenyl)-6-fluoro-3-isopropyl-1H-indol-5-yl)piperidin-1-yl)-N-methylethan-1-amine]: the half-inhibitory concentration (IC50) is 0.009 µM.

Consider `COc1ccc(-c2[nH]c3ccc(C4CCN(C(=O)CNCC(C)O)CC4)cc3c2C(C)C)cc1OC` (centres unmarked) [Example 210, 1-(4-(2-(3,4-dimethoxyphenyl)-3-isopropyl-1H-indol-5-yl)piperidin-1-yl)-2-((2-hydroxypropyl)amino)ethan-1-one], for which inhibition was half-maximal at 0.013 µM (IC50).

Consider `COc1ccc(-c2[nH]c3ccc(C4CCN(C(=O)CN5CCC(N6CCCCC6)CC5)CC4)cc3c2C(C)C)cc1OC` [Example 211, 2-([1,4′-bipiperidin]-1′-yl)-1-(4-(2-(3,4-dimethoxyphenyl)-3-isopropyl-1H-indol-5-yl)piperidin-1-yl)ethan-1-one], for which the IC50 was determined as 0.014 µM. The IC50 values of the last two compounds are within 1.5-fold of each other.

Take `COc1ccc(-c2[nH]c3ccc(C4CCN(C(=O)CNCCO)CC4)cc3c2C(C)C)cc1OC` [Example 212, 1-(4-(2-(3,4-dimethoxyphenyl)-3-isopropyl-1H-indol-5-yl)piperidin-1-yl)-2-((2-hydroxyethyl)amino)ethan-1-one]: half-maximal inhibition (IC50) was put at 0.013 µM.

`COc1ccc(-c2[nH]c3ccc(C4CCN(C(=O)CNC5(CO)CCCC5)CC4)cc3c2C(C)C)cc1OC` [Example 213, 1-(4-(2-(3,4-dimethoxyphenyl)-3-isopropyl-1H-indol-5-yl)piperidin-1-yl)-2-((1-(hydroxymethyl)cyclopentyl)amino)ethan-1-one] returned an IC50 of 0.031 µM. Compared with the last compound, the IC50 is about 2.4-fold higher.

Regarding `COc1ccc(-c2[nH]c3ccc(C4CCN(C(=O)CNCC#N)CC4)cc3c2C(C)C)cc1OC` [Example 214, 2-((2-(4-(2-(3,4-dimethoxyphenyl)-3-isopropyl-1H-indol-5-yl)piperidin-1-yl)-2-oxoethyl)amino) acetonitrile], half-maximal inhibition (IC50) was put at 0.021 µM.

Compound `COc1ccc(-c2[nH]c3ccc(C4CCN(C(=O)CNC5CCC(N(C)C)CC5)CC4)cc3c2C(C)C)cc1OC` (centres unmarked) [Example 215, 1-(4-(2-(3,4-dimethoxyphenyl)-3-isopropyl-1H-indol-5-yl)piperidin-1-yl)-2-((4-(dimethylamino)cyclohexyl)amino)ethan-1-one] had a half-inhibitory concentration (IC50) of 0.036 µM.

In turn, `COc1ccc(-c2[nH]c3ccc(C4CCN(C(=O)CNC56CC7CC(CC(C7)C5)C6)CC4)cc3c2C(C)C)cc1OC` [Example 217, 2-(((3s,5s,7s)-adamantan-1-yl)amino)-1-(4-(2-(3,4-dimethoxyphenyl)-3-isopropyl-1H-indol-5-yl)piperidin-1-yl)ethan-1-one] gave an IC50 of 0.409 µM.

Take `COc1ccc(-c2[nH]c3ccc(C4CCN(C(=O)CNC56CC7CC(CC(O)(C7)C5)C6)CC4)cc3c2C(C)C)cc1OC` [Example 218, 1-(4-(2-(3,4-dimethoxyphenyl)-3-isopropyl-1H-indol-5-yl)piperidin-1-yl)-2-(((1r,3s,5R,7S)-3-hydroxyadamantan-1-yl)amino)ethan-1-one]: 0.044 µM corresponded to half-maximal inhibition (IC50).

For the compound `COc1ccc(-c2[nH]c3ccc(C4CCN(C(=O)CNCC(C)(C)CO)CC4)cc3c2C(C)C)cc1OC` [Example 219, 1-(4-(2-(3,4-dimethoxyphenyl)-3-isopropyl-1H-indol-5-yl)piperidin-1-yl)-2-((3-hydroxy-2,2-dimethylpropyl)amino)ethan-1-one], the half-inhibitory concentration (IC50) was found to be 0.033 µM.

Regarding `COc1ccc(-c2[nH]c3ccc(C4CCN(C(=O)CNC(CO)CO)CC4)cc3c2C(C)C)cc1OC` [Example 220, 2-((1,3-dihydroxypropan-2-yl)amino)-1-(4-(2-(3,4-dimethoxyphenyl)-3-isopropyl-1H-indol-5-yl)piperidin-1-yl)ethan-1-one], the concentration for half-maximal inhibition (IC50) was 0.025 µM.
